Experimental data: patent EP4467141A1, “PYRAZOLO-QUINOLINES AS SELECTIVE INHIBITORS OF GENOTOXIC STRESS-INDUCED IKK/NF- KB PATHWAYS FOR CANCER THERAPY” (Max-Delbrück-Centrum für Molekulare Medizin in der …, priority 2023, dated 2024)

Tested on: NF-κB subunit p65 phosphorylation (S536)
Assay: Western blot of p65 phosphorylation (S536) after DNA damage (irradiation or etoposide) in U2-OS cells
Format: cell-based
Conditions: 10 µM plus etoposide 50 µM, 24 hours

| SMILES | etoposide-stimulated p65 phosphorylation |
| --- | --- |
| COc1ccc2c(c1OC)c(=O)n1c3ccc(O)cc3c3ccnc2c31 [MW01, 5-Hydroxy-10,11-dimethoxy-9H-benzo[c]indolo[3,2,1-ij][1,5]naphthyridin-9-one] | abrogated |
| COc1ccc2cc3c(N)nn(C(=O)c4cccc(N(C)C)c4)c3nc2c1 [MW05, (3-Amino-7-methoxypyrazolo[3,4-b]quinolin-1-yl)-[3-(dimethylamino)phenyl]methanone] | abrogated |
